# Data from ChEMBL document CHEMBL1212812, “Multi-target spectral moment QSAR versus ANN for antiparasitic drugs against different parasite species” (Bioorg Med Chem, 2010).
# pIC50: −log10 of the molar value. Counter-ions that a name gives are not always drawn.
# Tested on: Plasmodium falciparum
# Test: Antimicrobial activity against Plasmodium falciparum
# Assay type: functional, organism-based
row,SMILES,pIC50
1,CCOP(=O)(OCC)C(Nc1ncccc1C)P(=O)(OCC)OCC,3.70
2,O=P(O)(O)C(O)(C1CC1)P(=O)(O)O [CYCLOPROPYL(HYDROXY)METHYLENEDIPHOSPHONIC ACID],3.70
3,O=P(O)(O)C(O)(Cc1ccncc1)P(=O)(O)O,3.70
4,O=P(O)(O)C(Nc1ccc(O)cn1)P(=O)(O)O,3.71
5,O=P(O)(O)C(N1CCCCC1)P(=O)(O)O,3.70
6,O=P(O)(O)C(N1CCC(O)CC1)P(=O)(O)O,3.70
7,CCCCCCCCCCCCCCCCOS(=O)(=O)O [SODIUM HEXADECYL SULFATE],3.84
8,O=C1Nc2ccccc2/C1=C\c1ccc(Cl)cc1,4.43
9,CCCCN(CC)C(P(=O)(O)O)P(=O)(O)O [(BUTYL(ETHYL)AMINO)METHYLENEDIPHOSPHONIC ACID],3.70
10,COc1cc(NC(C)CCCN)c2nccc(C)c2c1OCCCCCc1ccccc1 (stereo not given),5.30
11,O=C1Nc2ccccc2/C1=C\C1CCCCN1 (stereo not given),4.68
12,NC1=NC(c2cccc(Oc3cccc(C(F)(F)F)c3)c2)N(c2cccc(Cl)c2)C(N)=N1 (stereo not given),5.52
13,C=C[C@H]1CN2CCc3c([nH]c4ccc(O)cc34)[C@@H]2C[C@@H]1C[C@H]1c2[nH]c3ccccc3c2CCN1C,5.70
14,COc1cc(Cc2cnc(N)nc2N)ccc1OCc1ccccc1,5.30
15,Cc1cc(C)nc(NC(P(=O)(O)O)P(=O)(O)O)c1,3.70
16,CCCCCCCCCCO[C@@H]1O[C@H](CO)[C@@H](O)[C@H](O)[C@H]1O,3.63
17,NC1=NC(c2ccc(Oc3ccccc3)cc2)N(c2cccc(Cl)c2)C(N)=N1 (stereo not given),5.52
18,CCCCCCC(O)(P(=O)(O)O)P(=O)(O)O,5.40
19,CC(CCCN1CCCC1)Nc1ccnc2cc(Cl)ccc12 (stereo not given) [Chloroquine-pyrolidinyl],4.36
20,Nc1ccc(S(=O)(=O)c2ccc(N)cc2)cc1 [DAPSONE],4.74
21,CCOC(=O)c1ccc(N2CCN(c3ccc(C(=O)OCC)cc3)CC2)cc1,6.00
22,COc1cc(NC(C)CCCN)c2nccc(C)c2c1OCCCCCc1ccc(C(F)(F)F)cc1 (stereo not given),5.70
23,CCCCN(CCCC)CCC(O)c1cc2c(Cl)cc(Cl)cc2c2cc(C(F)(F)F)ccc12 (stereo not given) [HALOFANTRINE],3.73
24,Cc1c(OCC(F)(F)F)ccnc1C[S+]([O-])c1nc2ccccc2[nH]1 (stereo not given) [LANSOPRAZOLE],4.96
25,CC(=O)NO [ACETOHYDROXAMIC ACID],2.99
26,O=P(O)(O)C(NC1CC1)P(=O)(O)O [(CYCLOPROPYLAMINO)METHYLENEDIPHOSPHONIC ACID],3.70
27,CNCCCN1c2ccccc2CCc2ccccc21 [DESIPRAMINE],4.92
28,CC(C)N(C(C)C)C(P(=O)(O)O)P(=O)(O)O [(DIISOPROPYLAMINO)METHYLENEDIPHOSPHONIC ACID],3.70

# Tested on: Leishmania infantum
# Test: Antimicrobial activity against Leishmania infantum
# Assay type: functional, organism-based
row,SMILES,pIC50
1,COc1ccc2nc3ccc(COC(=O)CC(C)C)cc3c(N)c2c1,5.70
2,COc1ccc2nc3ccc(NCCCCNc4ccc5nc6ccc(OC)cc6c(Cl)c5c4)cc3c(Cl)c2c1,5.00
3,COc1ccc2nc3ccc(COC(=O)c4ccccc4)cc3c(Cl)c2c1,3.86
4,COc1ccc2nc3ccc(C)cc3c(N)c2c1,6.00
5,COc1ccc2nc3ccc(C)cc3c(Cl)c2c1,5.00
6,COc1ccc2nc3ccc(CBr)cc3c(N)c2c1,5.40
7,COc1ccc2nc3ccc(COC(=O)c4ccc(F)cc4)cc3c(N)c2c1,6.00
8,COc1ccc2nc3ccc(COC(=O)c4ccccc4)cc3c(N)c2c1,4.46
9,COc1ccc2nc3ccc(N(CCCCCN(c4ccc5nc6ccc(OC)cc6c(Cl)c5c4)c4ccc5nc6ccc(OC)cc6c(Cl)c5c4)c4ccc5nc6ccc(OC)cc6c(Cl)c5c4)cc3c(Cl)c2c1,5.70
10,COC(=O)OCc1ccc2nc3ccc(OC)cc3c(N)c2c1,6.00
11,COc1ccc2nc3ccc(NCCCCCCNc4ccc5nc6ccc(OC)cc6c(Cl)c5c4)cc3c(Cl)c2c1,5.52
12,COc1ccc2nc3ccc(N(CCCCCCCN(c4ccc5nc6ccc(OC)cc6c(N)c5c4)c4ccc5nc6ccc(OC)cc6c(N)c5c4)c4ccc5nc6ccc(OC)cc6c(N)c5c4)cc3c(N)c2c1,3.86
13,CCCC(=O)OCc1ccc2nc3ccc(OC)cc3c(Cl)c2c1,5.52
14,COc1ccc2nc3ccc(COC(=O)CC(C)C)cc3c(Cl)c2c1,4.44
15,COc1ccc2nc3ccc(NCCCCNc4ccc5nc6ccc(OC)cc6c(N)c5c4)cc3c(N)c2c1,5.30
16,COc1ccc2nc3ccc(CBr)cc3c(Cl)c2c1,5.22
17,COc1ccc2nc3ccc(N(CCCCCCCCN(c4ccc5nc6ccc(OC)cc6c(N)c5c4)c4ccc5nc6ccc(OC)cc6c(N)c5c4)c4ccc5nc6ccc(OC)cc6c(N)c5c4)cc3c(N)c2c1,6.00
18,COC(=O)OCc1ccc2nc3ccc(OC)cc3c(Cl)c2c1,5.52
19,COc1ccc2nc3ccc(CO)cc3c(Cl)c2c1,3.74
20,COc1ccc2nc3ccc(N(CCCCCN(c4ccc5nc6ccc(OC)cc6c(N)c5c4)c4ccc5nc6ccc(OC)cc6c(N)c5c4)c4ccc5nc6ccc(OC)cc6c(N)c5c4)cc3c(N)c2c1,5.70
21,COc1ccc2nc3ccc(N(CCCCCCCN(c4ccc5nc6ccc(OC)cc6c(Cl)c5c4)c4ccc5nc6ccc(OC)cc6c(Cl)c5c4)c4ccc5nc6ccc(OC)cc6c(Cl)c5c4)cc3c(Cl)c2c1,6.00
22,COc1ccc(C(=O)OCc2ccc3nc4ccc(OC)cc4c(N)c3c2)cc1,5.70
23,COc1ccc2nc3ccc(COC(=O)c4ccc(Cl)cc4)cc3c(Cl)c2c1,3.81
24,COc1ccc2nc3cc(NCCCCCCCNc4ccc5nc6ccc(OC)cc6c(N)c5c4)ccc3c(N)c2c1,5.05
25,COc1ccc2nc3ccc(NCCCCCCNc4ccc5nc6ccc(OC)cc6c(N)c5c4)cc3c(N)c2c1,6.00
26,COc1ccc2nc3ccc(COC(=O)c4ccc(Cl)cc4)cc3c(N)c2c1,5.52
27,CCCC(=O)OCc1ccc2nc3ccc(OC)cc3c(N)c2c1,5.52
28,COc1ccc2nc3ccc(N(CCCCCCN(c4ccc5nc6ccc(OC)cc6c(N)c5c4)c4ccc5nc6ccc(OC)cc6c(N)c5c4)c4ccc5nc6ccc(OC)cc6c(N)c5c4)cc3c(N)c2c1,5.15
29,COc1ccc2nc3ccc(N(CCCCCCN(c4ccc5nc6ccc(OC)cc6c(Cl)c5c4)c4ccc5nc6ccc(OC)cc6c(Cl)c5c4)c4ccc5nc6ccc(OC)cc6c(Cl)c5c4)cc3c(Cl)c2c1,4.17
30,COc1ccc(C(=O)OCc2ccc3nc4ccc(OC)cc4c(Cl)c3c2)cc1,3.90

# Tested on: Entamoeba histolytica
# Test: Antimicrobial activity against Entamoeba histolytica
# Assay type: functional, organism-based
row,SMILES,pIC50
1,CCOP(=O)(OCC)C(Nc1ncccc1C)P(=O)(OCC)OCC,3.70
2,O=P(O)(O)C(O)(C1CC1)P(=O)(O)O [CYCLOPROPYL(HYDROXY)METHYLENEDIPHOSPHONIC ACID],3.70
3,O=P(O)(O)C(O)(Cc1ccncc1)P(=O)(O)O,3.70
4,O=P(O)(O)C(Nc1ccc(O)cn1)P(=O)(O)O,4.02
5,O=P(O)(O)C(N1CCCCC1)P(=O)(O)O,3.70
6,O=P(O)(O)C(N1CCC(O)CC1)P(=O)(O)O,3.70
7,O=P(O)(O)C(Nc1ccc(-c2ccccc2)cc1)P(=O)(O)O,5.05
8,CCn1c2ccccc2c2ccc(NC(P(=O)(O)O)P(=O)(O)O)cc21,3.70
9,CCCC(O)(P(=O)(O)O)P(=O)(O)O,3.70
10,O=P(O)(O)C(CNc1ccccn1)P(=O)(O)O,3.70
11,O=P(O)(O)C(Nc1nccc2ccccc12)P(=O)(O)O,3.70
12,CCCCC(O)(P(=O)(O)O)P(=O)(O)O,3.70
13,O=P(O)(O)C(O)(CSc1ccncc1)P(=O)(O)O,3.70
14,O=P(O)(O)C(O)(Cc1ccccn1)P(=O)(O)O,3.70
15,CN(CCOc1ccccc1)CCC(O)(P(=O)(O)O)P(=O)(O)O,5.22
16,CCCCCCNC(P(=O)(O)O)P(=O)(O)O [(HEXYLAMINO)METHYLENEDIPHOSPHONIC ACID],3.70
17,O=P(O)(O)C(N1CCOCC1)P(=O)(O)O [MORPHOLINOMETHYLENEDIPHOSPHONIC ACID],3.70
